In patent US20250073220A1, “ORAL SOLUTION COMPRISING LENALIDOMIDE” (A FINE HOUSE S.A., priority 2021, published 2025):
Values after ≈ are worked out from the molar mass of the structure shown.

Assays:
[1] = Precipitation after preparation of liquid lenalidomide compositions; assay type: physicochemical; conditions: a few minutes after lenalidomide was dissolved in an aqueous buffer at pH between 1.0 and 3.5
Method: A composition was prepared according to example 23 of WO 1998/03502. The solution contained 5.0 g lenalidomide, 22.5 g sodium chloride, 300.0 g phosphate buffer with pH 7.4 and demineralized water. The pH of the final composition was 7.4.
Similar results (i.e. precipitation) were obtained a few minutes after lenalidomide was dissolved in an aqueous buffer at pH between 1.0 and 3.5.
Thus, the composition of Trial 0 was not subjected to the stability study.
The composition of trial 4 was not subjected to the stability study.

[2] = 0.1 N HCl aqueous solution (pH around 1); cited from earlier work

precipitation after dissolution [1]: precipitation
Compound: Nc1cccc2c1CN(C1CCC(=O)NC1=O)C2=O (racemic) [Lenalidomide, 1-oxo-(2,6-dioxopiperidin-3-yl)-4-aminoisoindoline]
solubility [2]: 18.0 mg/mL (≈ 69.4 mM)
